Test results taken from ChEMBL document CHEMBL1201862, “PubChem BioAssay data set” (2004).
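Where inhibition never reached the appropriate level, the endpoint shown equals the highest concentration tested. Otherwise, values were interpolated linearly from a five-concentration, 48-hour dose response in 96-well plates. Here, GI50 denotes the concentration required for 50% inhibition of growth.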 Calls of active or inactive are those of the source. No stated cut-off is given here; in the data, active = GI50 up to about 1.1 µM and inactive = higher.

Columns and labels:
Assay in all cases: inhibition of tumour cell growth, NCI panel, 48 h
HCT-116 = tested on: HCT-116
NCI-H226 = tested on: NCI-H226
SR = tested on: SR
Malme-3M = tested on: Malme-3M
MOLT-4 = tested on: MOLT-4
HCT-15 = tested on: HCT-15
OVCAR-5 = tested on: OVCAR-5
TK-10 = tested on: TK-10
MDA-MB-231 = tested on: MDA-MB-231
Hs-578T = tested on: Hs-578T
HOP-92 = tested on: HOP-92
SK-MEL-5 = tested on: SK-MEL-5
K562 = tested on: K562
OVCAR-4 = tested on: OVCAR-4
MDA-N = tested on: MDA-N
NCI/ADR-RES = tested on: NCI/ADR-RES
IGROV-1 = tested on: IGROV-1
SF-295 = tested on: SF-295
UACC-62 = tested on: UACC-62
DU-145 = tested on: DU-145

SMILES	GI50 (HCT-116)	GI50 (NCI-H226)	GI50 (SR)	GI50 (Malme-3M)	GI50 (MOLT-4)	GI50 (HCT-15) [µM]	GI50 (OVCAR-5)	GI50 (TK-10)	GI50 (MDA-MB-231)	GI50 (Hs-578T)	GI50 (HOP-92)	GI50 (SK-MEL-5)	GI50 (K562)	GI50 (OVCAR-4)	GI50 (MDA-N)	GI50 (NCI/ADR-RES)	GI50 (IGROV-1)	GI50 (SF-295)	GI50 (UACC-62)	GI50 (DU-145)
CC(C)N(C(=O)c1ccc(NCc2cc(O)ccc2O)cc1)C(C)C	15.5 µM (inactive)	17.2 µM (inactive)	> 100 µM (inactive)	13.9 µM (inactive)	15.2 µM (inactive)	16.8	21.5 µM (inactive)	15.6 µM (inactive)	14.3 µM (inactive)	26.2 µM (inactive)	11.9 µM (inactive)	14.6 µM (inactive)	20.4 µM (inactive)	15.1 µM (inactive)	17.7 µM (inactive)	14.8 µM (inactive)	17.7 µM (inactive)	21.1 µM (inactive)	14.2 µM (inactive)	16.4 µM (inactive)
CCOC(=O)N1N=C(/C(C)=N/OC)C(C)[S+]1[O-] (stereo not given)	> 100 µM (inactive)	> 100 µM (inactive)	> 100 µM (inactive)	> 100 µM (inactive)	> 100 µM (inactive)	> 100	> 100 µM (inactive)	> 100 µM (inactive)	> 100 µM (inactive)	> 100 µM (inactive)	> 100 µM (inactive)	> 100 µM (inactive)	> 100 µM (inactive)	> 100 µM (inactive)	> 100 µM (inactive)	> 100 µM (inactive)	> 100 µM (inactive)	> 100 µM (inactive)	> 100 µM (inactive)	> 100 µM (inactive)
